Source: patent publication US10081632B2, “Substituted tetrahydropyrido[3′,2′:4,5]pyrrolo[1,2-α]pyrazine-2-carboxamides as RSK inhibitors” (Phoenix Molecular Designs, priority 2016, dated 2018)
“Also recorded” adds a separate entry of the source. Where a name gives a salt, the structure may show the parent alone.

Assays:
[1] = system: MDA-MB-231 cells; assay: Immuno-oncology gene expression (HLA-DRA, CIITA, CD274 mRNA); type: cell-based, Human; settings: Compound 16 2 or 4 uM, Compound 18 1, 2, or 4 uM
Text: A key feature of cancer is low immunogenicity. This can occur by several mechanisms that allow the cells to escape immune recognition. […] HLA-DRA is a member of MHC-II genes and CIITA is the master regulator of MHC II transcription. Thus it was surprising that CIITA, which would be expected to regulate MHC II gene expression, was not altered by RSK inhibition. […] HLA-DRA is important for immune recognition while PD-L1 is involved in immune checkpoints.

[2] = system: CD34+ cells; assay: Colony forming unit hematopoietic stem cell assay; type: cell-based, human; settings: for IC50: Homo sapiens, Hematopoietic stem cell, CD34+ cells from peripheral blood, read-out: CD34+ (PB) IC50; for Therapeutic Window: ratio IC50 against CD34+ cells and MDA-MB-231 cells (SA)
Description: The hematopoietic colony forming cell assay was conducted based on a protocol outlined by StemCell Technologies. […] Following the addition of CD34^+ cells isolated from human cord blood or peripheral blood (StemCell Technologies) at a final concentration of 5×10^2 cells per dish, the tubes were vortexed and allowed to stand for 5 minutes at room temperature. Next, the MethoCult mixtures were dispensed into 35 mm dishes (Corning Incorporated) through blunt end needles (StemCell Technologies) and 5 ml syringes (BD Biosciences) at a volume of 1.1 ml per dish. The medium was evenly distributed across the surface of each dish by gentle tilting and rotation. The dishes were then placed in a 100 mm culture dish (Grenier Bio-One) containing additional 35 mm dishes with sterile water to maintain humidity. […] The number of myeloid and erythroid derived colonies in both the treated and control dishes were counted and compared.

[3] = system: 4T1 cells; assay: Soft agar growth inhibition assay; type: cell-based; settings: Mus musculus
Description: Two agar (Alfa Aesar) solutions (0.8% w/v and 0.4% w/v) were prepared in ultrapure water. The 0.8% agar solution was mixed in equal volumes with 2× media previously prepared from powder (Life Technologies) following the manufacturer's instructions and filter sterilized. The 0.8% agar and media solution was added to 24 well plates (Mandel Scientific) at 500 μl per well. The plates were placed in a humidified incubator at 37° C. with 5% CO2. Next, the 0.4% agar solution was mixed in equal volumes with 2× media. Breast cancer cell lines were added to this solution to achieve a final concentration of 2×10^4 cells per well and […] was added to each well on top of the bottom agar and media layer. […] The plates were returned to the incubator for 10-32 days, with a re-dosing of compounds or DMSO every 7 days. After 10-32 days, colonies were counted in 3 different fields of view for each well.
Representative compounds described herein were tested in the soft agar growth inhibition assay against the 4T1 breast cancer cell line.

[4] = system: SUM149-PTXR cells; assay: Monolayer growth inhibition, Alamar blue assay; type: cell-based, Human; settings: Homo sapiens; SUM149-PTXR (TNBC, BRCA Mutant), 5 days, single dose on day 1
Text: (§1) In all instances a single dose was given on day 1 of the experiment.

[5] = system: T47D cells; assay: Monolayer growth inhibition, Alamar blue assay; type: cell-based, Human; settings: Homo sapiens; T47D (ER/PR), 5 days, single dose on day 1
Text: as §1

[6] = system: SUM149-PTXR cells; assay: Monolayer growth inhibition, crystal violet assay; type: cell-based; settings: Homo sapiens; SUM149-PTXR (TNBC, BRCA Mutant), 5 days, single dose on day 1
Text: as §1

[7] = system: MDA-MB-435 cells; assay: Monolayer growth inhibition, crystal violet assay; type: cell-based; settings: Homo sapiens; MDA-MB-435 (Melanoma), 5 days, single dose on day 1
Text: as §1

[8] = system: 4T1 cells; assay: Monolayer growth inhibition, crystal violet assay; type: cell-based; settings: Mus musculus; 4T1 (TNBC), 5 days, single dose on day 1
Text: as §1

[9] = system: SUM149 cells; assay: Monolayer growth inhibition, crystal violet assay; type: cell-based; settings: Homo sapiens; SUM149 (TNBC, BRCA Mutant), 5 days, single dose on day 1
Text: as §1

[10] = system: PC3 cells; assay: Monolayer growth inhibition, crystal violet assay; type: cell-based; settings: Homo sapiens, PC-3; PC3 (Prostate), 5 days, single dose on day 1
Text: as §1

[11] = system: MDA-MB-231 cells; assay: Monolayer growth inhibition, crystal violet assay; type: cell-based; settings: Homo sapiens; MDA-MB-231 (TNBC), 5 days, single dose on day 1
Text: as §1

[12] = system: HCC1143 cells; assay: Monolayer growth inhibition, crystal violet assay; type: cell-based; settings: Homo sapiens; HCC1143 (TNBC), 5 days, single dose on day 1
Text: as §1

[13] = system: HCC1937 cells; assay: Monolayer growth inhibition, Alamar blue assay; type: cell-based; settings: Homo sapiens; HCC1937 (TNBC, BRCA Mutant), 5 days, single dose on day 1
Text: as §1

[14] = system: JIMT-1 cells; assay: Monolayer growth inhibition, Alamar blue assay; type: cell-based; settings: Homo sapiens; JIMT-1 (HER2), 5 days, single dose on day 1
Text: as §1

[15] = system: MDA-MB-435 cells; assay: Monolayer growth inhibition, Alamar blue assay; type: cell-based; settings: Homo sapiens; MDA-MB-435 (Melanoma), 5 days, single dose on day 1
Text: as §1

[16] = system: 4T1 cells; assay: Monolayer growth inhibition, Alamar blue assay; type: cell-based; settings: Mus musculus; 4T1 (TNBC), 5 days, single dose on day 1
Text: as §1

[17] = system: SUM149 cells; assay: Monolayer growth inhibition, Alamar blue assay; type: cell-based; settings: Homo sapiens; SUM149 (TNBC, BRCA Mutant), 5 days, single dose on day 1
Text: as §1

[18] = system: PC3 cells; assay: Monolayer growth inhibition, Alamar blue assay; type: cell-based; settings: Homo sapiens, PC-3; PC3 (Prostate), 5 days, single dose on day 1
Text: as §1

[19] = system: MDA-MB-231 cells; assay: Monolayer growth inhibition, Alamar blue assay; type: cell-based; settings: Homo sapiens; MDA-MB-231 (TNBC), 5 days, single dose on day 1
Text: as §1

[20] = system: MDA-MB-468 cells; assay: Monolayer growth inhibition, Alamar blue assay; type: cell-based; settings: Homo sapiens; MDA-MB-468 (TNBC), 5 days, single dose on day 1
Text: as §1

[21] = system: HCC1143 cells; assay: Monolayer growth inhibition, Alamar blue assay; type: cell-based; settings: Homo sapiens; HCC1143 (TNBC), 5 days, single dose on day 1
Text: as §1

[22] = system: MDA-MB-468 cells; assay: Soft agar growth inhibition assay; type: cell-based, Human; settings: Homo sapiens; MDA-MB-468 (TNBC), 14-22 days
[23] = system: All cell lines; assay: Monolayer growth inhibition, Alamar blue assay, range over all cell lines; type: cell-based; settings: 120 h; range of IC50 over all cell lines of the table; read-out: IC50 Values - Alamar Blue (5 Days), Range, All
Text: as §1

[24] = system: HCC1937 cells; assay: Monolayer growth inhibition, crystal violet assay; type: cell-based; settings: Homo sapiens; HCC1937 (TNBC, BRCA Mutant), 5 days, single dose on day 1
Text: (§2) In all instances a single dose was given on day 1 of the experiment. […] Complete (100%) growth suppression was achievable with several of the compounds in multiple different cell lines.

[25] = system: JIMT-1 cells; assay: Monolayer growth inhibition, crystal violet assay; type: cell-based; settings: Homo sapiens; JIMT-1 (HER2), 5 days, single dose on day 1
Text: as §2

[26] = system: T47D cells; assay: Monolayer growth inhibition, crystal violet assay; type: cell-based; settings: Homo sapiens; T47D (ER/PR), 5 days, single dose on day 1
Text: as §2

[27] = system: MDA-MB-468 cells; assay: Monolayer growth inhibition, crystal violet assay; type: cell-based; settings: Homo sapiens; MDA-MB-468 (TNBC), 5 days, single dose on day 1
Text: as §2

[28] = system: MDA-MB-231 cells; assay: Soft agar growth inhibition assay; type: cell-based; settings: Homo sapiens
[29] = system: All cell lines; assay: Monolayer growth inhibition, crystal violet assay, range over all cell lines; type: cell-based; settings: 120 h; range of IC50 over all cell lines of the table; read-out: IC50 Values - Crystal Violet (5 Days), Range, All
Text: as §2

[30] = system: phosphorylated Y-box binding protein-1 (YB-1) at serine 102 (P-YB-1S102); assay: Immunoblotting of cell signalling, loss of P-YB-1 in MDA-MB-231 cells; settings: MDA-MB-231 cells, 0.01-1 uM, 96 hrs
Description: Following desired experimental conditions, breast cancer cell lines grown and treated in 6 well plates or 100 mm culture dishes (Grenier Bio-One) were placed on ice and the supernatant from each well was removed and the cells were washed in cold PBS. Following removal of PBS, cells were exposed to radioimmunoprecipitation assay (RIPA) buffer (50 mM Tris-HCl (pH 8), 150 mM NaCl, 1% NP-40, 0.5% sodium deoxycholate, 0.1% SDS; Fisher Scientific) supplemented with 1% phosphatase inhibitor (Fisher Scientific) and 1% protease inhibitor (Fisher Scientific) for 10 minutes. Samples were transferred to eppendorf tubes, vortexed and then centrifuged at 14 000 rpm for 10 minutes. Supernatants were collected as whole cell lysates.
To begin, the protein content of the lysates was measured using the Bicinchoninic Acid (BCA) Protein Assay Kit (Pierce), which included a protein standard curve generated with bovine serum albumin. Appropriate volumes of samples and loading buffer (50 mM Tris-HCl (pH 6.8), 2% SDS, 10% glycerol, 1% j-mercaptoethanol, 12.5 mM EDTA, 0.02% bromophenol blue) were mixed, ensuring that equal amounts of protein were loaded. For the majority of experiments in this study, 30 μg of protein per well was loaded. Samples were then resolved on SDS-PAGE (polyacrylamide gel electrophoresis) using various percentages of acrylamide gels (8%-12%), depending on the proteins of interest. SDS-PAGE was run in SDS running buffer (25 mM Tris, 192 mM glycine, 0.1% SDS) and then transferred to nitrocellulose membranes (Bio-Rad) in transfer buffer (48 mM Tris, 39 mM glycine, 20% (v/v) methanol) at 100 volts for 90 minutes at room temperature. Immunoblots were then blocked in 5% skim milk in tris-buffered saline with 0.1% Tween-20 (TBS-T; 50 mM Tris-HCl, pH 7.5, 150 mM NaCl, 0.1% (v/v) Tween-20 (Fisher Scientific)) for 1 to 2 hours. Immunoblots were then incubated with selected primary antibodies diluted in TBS-T with 0.1% gelatin (Bio-Rad) and 0.05% sodium azide (Alfa Aesar) overnight. Following washes with TBT-T 4 times for 8 to 10 minutes, immunoblots were incubated with appropriate secondary antibodies conjugated to horseradish peroxidise (Cell Signalling Technology) diluted in TBS-T plus 5% skim milk at a ratio of 1:5000 for 2 hours at room temperature. After an additional round of washes in TBS-T, immunoblots were exposed to combined enhanced chemiluminescence (ECL) reagents (Fisher Scientific) for 1 minute and developed using ChemiDoc MP Imaging System (Bio-Rad). For certain immunoblots, bands of proteins of interest were scanned and band intensity ratios were determined by densitometric analysis (ImageJ). […] Total YB-1 was used as a loading control (1:5000 Abcam). […] To assess whether cells are actively undergoing cell death, the activity of poly ADP ribose polymerase (PARP) (1:1000 CST) was also measured using the immunoblotting method.

[31] = system: MDA-MB-231 cells; assay: Combination with paclitaxel, monolayer growth (crystal violet); settings: MDA-MB-231 cells + 0.3 nM PTX, 5 days
Description: 1×10^3 cells per well were seeded for a final volume of 200 μl per well and plates were incubated for 5 days at 37° C. in a humidified incubator with 5% CO2. Following the incubation period, cell survival was quantified by Alamar blue assay (Life Technologies). Briefly, media from each well was replaced with 100 μl of phosphate buffer saline (PBS, Life Technologies) and cells were incubated with 5% Alamar blue, which incorporates a propriety redox indicator that changes colour in response to metabolic activity, for up to 2 hours. During this period of incubation, the absorbance at 570 nm and 600 nm was measured at various time points, depending on the cell line or sample. Percent survival was calculated by comparing the absorbance ratio of the test well to the control well multiplied by 100%, as indicated in the following formula:
Following, plates were prepared for crystal violet staining. To begin, 100 μl of an 8% formaldehyde (Alfa Aesar) solution diluted in PBS was added to each well and plates were stored at 4° C. overnight. Next, the formaldehyde solution was discarded and the wells were washed with 200 μl ultrapure water per well three times. Following, 50 μl of a 0.5% crystal violet solution (0.5% w/v crystal violet (Alfa Aesar), 25% methanol (VWR)) was added to each well and incubated at room temperature for 20 minutes. The crystal violet solution was discarded and wells were washed with 200 μl ultrapure water per well three times. Next, 50 μl of a 5% sodium dodecyl sulphate (SDS) (Alfa Aesar) was added to each well and the absorbance at 590 nm was measured.

[32] = system: P-YB-1 in MDA-MB-231 xenografts; assay: Pharmacodynamics, P-YB-1 signalling in MDA-MB-231 xenograft tumors (immunoblotting); settings: 100 mg/kg BID PO for three days
Description: Following desired experimental conditions, breast cancer cell lines grown and treated in 6 well plates or 100 mm culture dishes (Grenier Bio-One) were placed on ice and the supernatant from each well was removed and the cells were washed in cold PBS. Following removal of PBS, cells were exposed to radioimmunoprecipitation assay (RIPA) buffer (50 mM Tris-HCl (pH 8), 150 mM NaCl, 1% NP-40, 0.5% sodium deoxycholate, 0.1% SDS; Fisher Scientific) supplemented with 1% phosphatase inhibitor (Fisher Scientific) and 1% protease inhibitor (Fisher Scientific) for 10 minutes. Samples were transferred to eppendorf tubes, vortexed and then centrifuged at 14 000 rpm for 10 minutes. Supernatants were collected as whole cell lysates. For mouse tumour tissues, each sample was place in a 35 mm culture dish with complete RIPA lysis buffer. […]
To begin, the protein content of the lysates was measured using the Bicinchoninic Acid (BCA) Protein Assay Kit (Pierce), which included a protein standard curve generated with bovine serum albumin. […] For certain immunoblots, bands of proteins of interest were scanned and band intensity ratios were determined by densitometric analysis (ImageJ). […] To assess whether cells are actively undergoing cell death, the activity of poly ADP ribose polymerase (PARP) (1:1000 CST) was also measured using the immunoblotting method.
Cell signalling was evaluated by immunoblotting. […]

[33] = Solubility assessment, 20 mg/ml solution; type: physicochemical; settings: hydrochloride salt
In short: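 Compounds from 100 mM DMSO stocks diluted to 20 mg/ml in DMEM with FBS and penicillin/streptomycin, vortexed and checked visually for precipitate. One compound instead diluted to 20 mg/ml in phosphate-buffered saline, solution pH 2.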

[34] = MDA-MB-231, growth in soft agar (SA), read-out: MDA-MB-231 IC50 (SA)
[35] = MDA-MB-231 (TNBC), 14-22 days, read-out: IC50 Values - Soft Agar (14-22 Days)

IC50 [2] | IC50 [28, 34] | Structure (SMILES) | Therapeutic Window [2] | IC50 [4] | IC50 [5] | IC50 [13] | IC50 [14] | IC50 [15] | IC50 [17] | IC50 [18] | IC50 [21] | IC50 [24] | IC50 [25] | IC50 [26] | IC50 [27] | IC50 [28, 35] | also measured
> 20 µM | 0.2 µM | C[C@@H]1CNC(=O)c2cc3ccc(C(=O)Nc4cnn(Cc5cccc(N)c5)c4)nc3n21 [Compound 16, (R)—N-(1-(3-aminobenzyl)-1H-pyrazol-4-yl)-9-methyl-6-oxo-6,7,8,9-tetrahydropyrido[3′,2′:4,5]pyrrolo[1,2-a]pyrazine-2-carboxamide] | >100X | 2.5 ± 0.4 µM | 4.7 ± 1.7 µM | 17.4 ± 3 µM | 16.3 ± 1 µM | 0.9 ± 0.5 µM | 3.4 ± 1.8 µM | 6.6 ± 2.3 µM | 7 ± 3 µM | 12 ± 5.3 µM | 13.3 ± 2.4 µM | 3.8 ± 0.7 µM | 1.9 ± 0.3 µM | 0.2 ± 0.1 µM | CD274 (gene encoding PD-L1) levels [1]: reduced levels of CD274; HLA-DRA mRNA [1]: elevated levels of HLA-DRA mRNA; mRNA expression of CIITA [1]: little effect; IC50 ([3]; 240 h, 4T1, 10 days, read-out: IC50 Values, 10 Days, Soft Agar): 3.3 µM; IC50 ([3]; 4T1 (TNBC), 14-22 days, read-out: IC50 Values - Soft Agar (14-22 Days)): 3.5 ± 0.3 µM; IC50 [6]: 3.5 ± 1.2 µM; IC50 [7]: 1.2 ± 0.6 µM; IC50 [8]: 4.5 ± 0.8 µM; IC50 [9]: 2.8 ± 0.9 µM; IC50 [10]: 3.7 ± 1.3 µM; IC50 [11]: 2.7 ± 1.3 µM; IC50 [12]: 5 ± 1.1 µM; IC50 [16]: 5.4 ± 0.9 µM; IC50 [19]: 8.7 ± 1.8 µM; IC50 [20]: 2.7 ± 0.5 µM; IC50 [22]: 1.1 ± 0.3 µM; IC50 [23]: 0.9 to 17.4 µM; IC50 [29]: 1.2 to 13.3 µM; Loss of P-YB-1 [30]: dose dependent loss of P-YB-1
0.0097 µM | 0.0014 µM | CC(=O)O[C@H]1C(=O)[C@@]2(C)[C@H]([C@H](OC(=O)c3ccccc3)[C@]3(O)C[C@H](OC(=O)[C@H](O)[C@@H](NC(=O)c4ccccc4)c4ccccc4)C(C)=C1C3(C)C)[C@]1(OC(C)=O)CO[C@@H]1C[C@@H]2O [Taxol, paclitaxel, reference compound] | 6.9X |  |  |  |  |  |  |  |  |  |  |  |  |  | % Survival [31]: MDA-MB-231 cells + 0.3 nM PTX: % Survival = 47.7%

Structure (SMILES) | IC50 [2] | IC50 [28, 34] | Therapeutic Window [2] | IC50 [4] | IC50 [5] | IC50 [13] | IC50 [14] | IC50 [15] | IC50 [17] | IC50 [18] | IC50 [21] | IC50 [24] | IC50 [25] | IC50 [26] | IC50 [27] | IC50 [28, 35] | also measured
C[C@@H]1CNC(=O)c2cc3ccc(C(=O)Nc4cnn(Cc5ccc(N)cc5)c4)nc3n21 [Compound 25, (R)—N-(1-(4-aminobenzyl)-1H-pyrazol-4-yl)-9-methyl-6-oxo-6,7,8,9-tetrahydropyrido[3′,2′:4,5]pyrrolo[1,2-a]pyrazine-2-carboxamide hydrochloride salt] | > 20 µM | 0.2 µM |  | 5.2 ± 4.2 µM | 8.9 ± 0.8 µM | 13.7 ± 3.8 µM | 19.9 ± 6.5 µM | 0.9 ± 0.1 µM | 10.4 ± 3.5 µM | 8.5 ± 0.8 µM | 5.1 ± 0.3 µM | 8.4 ± 1.9 µM | 15.2 ± 2.6 µM | 3.1 ± 0.1 µM | 2 ± 0.4 µM | 0.2 ± 0.1 µM | Therapeutic Window ([2]; hydrochloride salt): >100X; Tumors with reduced cell signaling through loss of P-YB-1 [32]: 3/3; Solubility, 20 mg/ml Solution ([33]; 100 mM in DMSO diluted in DMEM growth media to 20 mg/ml): Soluble; also recorded: superior solubility; pH of 20 mg/ml solution ([33]; DMSO stock diluted in DMEM, pH test strips): 2
